The values that follow come from patent US7166599B2, “Trisubstituted pyrimidines” (Boehringer Ingelheim Pharma GmbH & Co. KG, priority 2001, dated 2007).

Broadly, the melting point is the temperature of the solid-liquid transition. As a reminder, the IC50 is the point on the concentration scale where inhibition reaches its midpoint. The low end stands for greater potency in that assay, the high end for weaker potency in that assay.

Test system in the first data set: not given
Assay: not given
Details: not given
Take `CNc1nc(Nc2cccc(OCCN)c2)ncc1[N+](=O)[O-].Cl.Cl`: the melting point was 270 °C.

Compound `CNc1nc(Nc2ccc([S+](C)[O-])cc2)ncc1[N+](=O)[O-]` (stereo not drawn) [Example 10 a), 2-(4-methylsulphinylphenylamino)-4-methylamino-5-nitropyrimidine] showed a melting point of 288 °C.

Consider `CNc1nc(Nc2ccc(S(C)(=O)=O)cc2)ncc1[N+](=O)[O-]` [Example 10 b), 2-(4-methylsulphonylphenylamino)-4-methylamino-5-nitropyrimidine], for which the melting point was 323 °C.

Another data set deals with γ-secretase. Nature of the data set: γ-secretase HTS luciferase reporter assay (inhibition of Aβ formation) in H4 neuroglioma cells stably carrying pFRLuc and Aβ-KKK/Gal4. Type of data set: cell-based. Conditions: luciferase activity (Steady-Glo) in doubly stable H4 neuroglioma HTS cell line, test substance incubated overnight (8–16 h), compared with control. The source says:
The inhibition of Aβ formation was investigated using the following test system:
Preparation of a suitable γ-secretase HTS cell line:
H4 neuroglioma cells (Accession number HTB 148 at the “American Type Culture Collection”, Manassas, Va., USA) were transfected under standard conditions with the reporter construct pFRLuc (Stratagene) which carries the gene for luciferase. By transient transfection experiments with pcDNA3-Gal4 which codes for the soluble Gal4, an individual clone having the highest luciferase activity was selected. In order to prepare the Aβ-KKK/Gal4 construct, a sequence containing the N-terminal signal sequence of APP and the first 55 amino acids of Aβ (Shoji et al, 1992) was linked to the Gal4 coding sequence (Laughan, A and Gesteland, R Molec. Cell Biol., 1984, 4: 260–267) by genetic engineering and cloned into the expression vector pcDNA3neo (Invitrogen). This construct was called pcDNA3-AβKKK/Gal4. In order to insert an ER-retention signal in the substrate of the γ-secretase, the last nucleotides of the Gal4 were altered by genetic engineering so that they coded for the amino acids KKLI. This construct was named Aβ-KKK-ER. The cell clone obtained as described above was used for the second stable transfection with pcDNA3-Aβ-KKK/Gal4 or pcDNA3-Aβ-KKK-ER and the selection with neomycin was carried out under standard conditions (Sambrook and Maniatis, 1989). Individual neomycin-resistant cell clones were investigated for their expression of luciferase. The clones with the highest expression were used for the substance analyses. All the transfections were carried out using the Fugene transfection system supplied by Boehringer Mannheim, in accordance with the manufacturer's instructions.
The doubly stabile HTS cell line is seeded onto a 96/384 microtitre plate. When the cells are confluent, they are incubated with the particular test substance for a specified length of time. After incubation the cell medium is removed and the luciferase enzyme activity is determined precisely as instructed by the manufacturer of the test kit used (SteadyGlo, Promega).
As a result of the presence of an endogenous γ-secretase activity in the H4 cells the substrate (Aβ-KKK/Gal4) is cleaved proteolytically, while the transactivator Gal4 is able to become detached from the membrane and enter the cell nucleus. In the cell nucleus Gal4 binds to the Gal4-DNA binding domain of the reporter construct and thus activates the expression of the luciferase. If a specific γ-secretase inhibitor is present the substrate cannot be cleaved and Gal4 remains bound to the substrate on the cell membrane, leading to a reduction amounting to total inhibition of the luciferase activity.
Cells are seeded on 96/384 well plates in DMEM complete medium (10% FCS, 1% glutamine, 1% penicillin/streptomycin) in a dilution of 1:5. The cells are incubated for 24 to 48 h (depending on the cell clone and the dilution used) at 37° C., 5% CO2 and allowed to grow until 80–90% confluence is achieved. Then the test substance is added and the preparation is incubated overnight (8–16 h) at 37° C. and 5% CO2. The 96/384 well plates are equilibrated to ambient temperature (RT). The “Steady-Glo” Luciferase Assay System Kit (Promega catalogue no. E2520) is used. The Luciferase Assay Reagent is thawed and equilibrated to ambient temperature or freshly prepared (Luciferase Assay Substrate dissolved in Luciferase Assay Buffer). The medium is suction filtered […]. 100 μl (based on 96 well plates) of fresh complete medium are added per well. 100 μl (based on 96 well plates) of Luciferase Assay Reagent are added and the preparation is incubated for 5 min at RT. Then the luminescence is measured. For 384 well plates the quantities pipetted are reduced accordingly.
The measurements are compared with the control and then the IC50 is determined from a number of measurements.
In general terms: Reporter assays use an easily measured gene product as a stand-in for the process of interest.
`CNc1nc(Nc2ccc(Cl)cc2)ncc1[N+](=O)[O-]` [1 (1), 2-(4-chlorophenylamino)-4-methylamino-5-nitro-pyrimidine] gave an IC50 of 800 nM.

`CNc1nc(Nc2ccc(Cl)c(Cl)c2)ncc1N` [2 (1), 2-(3,4-dichlorophenylamino)-4-methylamino-5-amino-pyrimidine] had an IC50 of 1000 nM.

As to `CNc1nc(Nc2ccc(Cl)c(Cl)c2)ncc1NS(C)(=O)=O` [3 (3), 2-(3,4-dichlorophenylamino)-4-methylamino-5-methylsulphonylamino-pyrimidine], the half-maximal inhibitory concentration (IC50) is 60 nM.

As for `CNc1nc(Nc2ccc(Cl)c(Cl)c2)ncc1NC(C)=O` [3 (4), 2-(3,4-dichlorophenylamino)-4-methylamino-5-acetylamino-pyrimidine], the midpoint of inhibition, the IC50, lay at 60 nM.

Compound `CNc1nc(Nc2ccc(Cl)c(Cl)c2)ncc1N1CCNC1=O` [3 (26), 2-(3,4-dichlorophenylamino)-4-methylamino-5-(imidazolidin-2-on-1-yl)-pyrimidine] showed an IC50 of 600 nM.

For the compound `CNc1nc(Nc2ccc(Cl)c(Cl)c2)ncc1NC(=O)N1CCOCC1` [3 (30), 2-(3,4-dichlorophenylamino)-4-methylamino-5-morpholinocarbonylamino-pyrimidine], the IC50 was 200 nM.

In turn, `CNc1nc(Nc2ccc(Cl)c(Cl)c2)ncc1N1CCCNC1=O` [3 (33), 2-(3,4-dichlorophenylamino)-4-methylamino-5-(tetrahydro-2(1H)-pyrimidinon-1-yl)-pyrimidine] returned a half-maximal inhibitory concentration (IC50) of 300 nM.

Take `CNc1nc(Nc2ccc(Cl)cc2F)ncc1NC(=O)N(C)C` [3 (36), 2-(4-chloro-2-fluorophenylamino)-4-methylamino-5-(N,N-dimethylcarbamoyl-amino)-pyrimidine]: the IC50 worked out at 250 nM.

Compound `CNc1nc(Nc2ccc(Cl)c(Cl)c2)ncc1NC(N)=O` [3 (40), 2-(3,4-dichlorophenylamino)-4-methylamino-5-aminocarbonylamino-pyrimidine] showed a concentration for half-maximal inhibition (IC50) of 350 nM.

In turn, `CN(C)c1nc(Nc2ccc(Cl)c(Cl)c2)ncc1NC(=O)N1CCOCC1` [3 (54), 2-(3,4-dichlorophenylamino)-4-dimethylamino-5-(morpholinocarbonylamino)-pyrimidine] displayed a half-maximal inhibitory concentration (IC50) of 900 nM.

`CCNc1nc(Nc2ccc(Cl)c(Cl)c2)ncc1NC(=O)N1CCOCC1` [3 (55), 2-(3,4-dichlorophenylamino)-4-ethylamino-5-(morpholinocarbonylamino)-pyrimidine] yielded an IC50 of 900 nM.

In turn, `CNc1nc(Nc2cccc(Cl)c2)ncc1NC(=O)N1CCOCC1` [3 (59), 2-(3-chlorophenylamino)-4-methylamino-5-(morpholinocarbonylamino)-pyrimidine] gave an IC50 of 150 nM.

For the compound `CNc1nc(Nc2ccc(Cl)c(Cl)c2)ncc1NC(=O)C(F)(F)F` [3 (66), 2-(3,4-dichlorophenylamino)-4-methylamino-5-trifluoracetylamino-pyrimidine], half-maximal inhibition (IC50) was put at 800 nM.

The compound `CN(C)CCCNc1nc(Nc2ccc(Cl)c(Cl)c2)ncc1[N+](=O)[O-]` [4 (9), 2-(3,4-dichlorophenylamino)-4-[3-(dimethylamino)propylamino]-5-nitro-pyrimidine] registered a half-inhibitory concentration (IC50) of 1000 nM.

As for `CNc1nc(N(C)c2ccc(Cl)c(Cl)c2)ncc1N1CCNC1=O` [8 (2), 2-[N-(3,4-dichlorophenyl)-N-methylamino]-4-methylamino-5-(imidazolidin-2-on-1-yl)-pyrimidine], the concentration for half-maximal inhibition (IC50) came out at 1000 nM.

Compound `CNc1nc(Nc2ccc(Cl)c(Cl)c2)ncc1NC(=O)N1CCN(C)CC1` [11 (2), 2-(3,4-dichlorophenylamino)-4-methylamino-5-(4-methylpiperazinocarbonylamino)-pyrimidine] showed a half-maximal inhibitory concentration (IC50) of 100 nM. Compared with the last compound, the IC50 is about 10-fold lower.

For `CNc1nc(Nc2ccc(Cl)c(Cl)c2)ncc1NC(=O)N(CCOC)CCOC` [11 (3), 2-(3,4-dichlorophenylamino)-4-methylamino-5-[[bis-(2-methoxyethyl)amino]-carbonylamino]-pyrimidine], 4 nM corresponded to half-maximal inhibition (IC50).

`CNc1nc(Nc2ccc(Cl)c(Cl)c2)ncc1NC(=O)N1CCCCCC1` [11 (4), 2-(3,4-dichlorophenylamino)-4-methylamino-5-(hexamethyleneiminocarbonylamino)-pyrimidine] came in with a half-inhibitory concentration (IC50) of 60 nM.

`CCN(CC)C(=O)Nc1cnc(Nc2ccc(Cl)c(Cl)c2)nc1NC` [11 (5), 2-(3,4-dichlorophenylamino)-4-methylamino-5-(diethylaminocarbonylamino)-pyrimidine] registered a half-maximal inhibitory concentration (IC50) of 100 nM.

For the compound `CNc1nc(Nc2ccc(Cl)c(Cl)c2)ncc1NC(=O)N1CCNCC1` [11 (6), 2-(3,4-dichlorophenylamino)-4-methylamino-5-(piperazinocarbonylamino)-pyrimidine], inhibition was half-maximal at 700 nM (IC50). Against the preceding compound, the IC50 is about 7-fold higher.

`CNc1nc(Nc2ccc(Cl)c(Cl)c2)ncc1NC(=O)N1CCN(C(C)=O)CC1` [11 (7), 2-(3,4-dichlorophenylamino)-4-methylamino-5-(4-acetylpiperazinocarbonylamino)-pyrimidine] had an IC50 of 1000 nM.

`CNc1nc(Nc2ccc(Cl)c(Cl)c2)ncc1NC(=O)N(C)CCO` [11 (8), 2-(3,4-dichlorophenylamino)-4-methylamino-5-[[N-methyl-(2-hydroxyethyl)-amino]carbonylamino]-pyrimidine] gave a concentration for half-maximal inhibition (IC50) of 200 nM. This IC50 is about 5-fold lower than that of the compound before.

Compound `CNc1nc(Nc2ccc(Cl)c(Cl)c2)ncc1NC(=O)N(C)CCN(C)C` [11 (10), 2-(3,4-dichlorophenylamino)-4-methylamino-5-[[N-methyl-(2-dimethylamino-ethyl)amino]carbonylamino]-pyrimidine] came in with a half-maximal inhibitory concentration (IC50) of 800 nM.

Regarding `CNc1nc(Nc2ccc(Cl)c(Cl)c2)ncc1NC(=O)N(C)CCCN(C)C` [11 (11), 2-(3,4-dichlorophenylamino)-4-methylamino-5-[[N-methyl-(3-dimethylaminopropyl)amino]carbonylamino]-pyrimidine], it took 700 nM to reach half-maximal inhibition (IC50). The IC50 values of the last two compounds are within 1.5-fold of each other.

As for `CNc1nc(Nc2ccc(Cl)c(Cl)c2)ncc1NC(=S)N1CCOCC1` [11 (12), 2-(3,4-dichlorophenylamino)-4-methylamino-5-(morpholinothiocarbonylamino)-pyrimidine], it took 1000 nM to reach half-maximal inhibition (IC50).

As to `CNc1nc(Nc2ccc(Cl)c(Cl)c2)ncc1N(C)S(C)(=O)=O` [Example 8, 2-(3,4-dichlorophenylamino)-4-methylamino-5-(N-methyl-methylsulphonylamino)-pyrimidine], the IC50 turned out to be 1100 nM.

In the case of `CNc1nc(Nc2ccc(Cl)c(Cl)c2)ncc1NC(=O)N1CCCC1` [Example 11, 2-(3,4-dichlorophenylamino)-4-methylamino-5-(pyrrolidinocarbonylamino)-pyrimidine], the half-maximal inhibitory concentration (IC50) is 100 nM.
